According to patent publication US11390584B2, “1-cyano-pyrrolidine compounds as USP30 inhibitors” (Mission Therapeutics Limited, priority 2015, dated 2022):

Target: USP30 (Homo sapiens (Human), UniProt Q70CQ3)
Assay: USP30 biochemical FP or FI IC50 assay
Conditions: read-out: IC50 range
Experimental: In Vitro USP30 FP Inhibition Assay
USP30 Biochemical IC50 Assay
(§1) Dilution plates were prepared at 21 times the final concentration (2100 μM for a final concentration of 100 μM) in 50% DMSO in a 96-well polypropylene V-bottom plate (Greiner #651201). A typical 8-point dilution series would be 100, 30, 10, 3, 1, 0.3, 0.1, 0.03 μM final. Reactions were performed in duplicate in black 384 well plates (small volume, Greiner 784076) in a final reaction volume of 21 μl. Either 1 μl of 50% DMSO or diluted compound was added to the plate. USP30 was diluted in reaction buffer (40 mM Tris, pH 7.5, 0.005% Tween 20, 0.5 mg/ml BSA, 5 mM—beta-mercaptoethanol) to the equivalent of 0.05 µl/well and 10 μl of diluted USP30 was added to the compound. Enzyme and compound were incubated for 30 min at room temp. Reactions were initiated by the addition of 50 nM of TAMRA labelled peptide linked to ubiquitin via an iso-peptide bond as fluorescence polarisation substrate. Reactions were read immediately after addition of substrate and following a 2 hr incubation at room temperature. Readings were performed on a Pherastar Plus (BMG Labtech). λ Excitation 540 nm; λ Emission 590 nm.
In Vitro USP30 FI Inhibition Assay
USP30 Biochemical Fluorescence Intensity IC50 Assay
as §1, with “0.001 μl/well” for “0.05 µl/well”, “Ubiquitin-Rhodamine 110 (U-555; Boston Biochem) at a final concentration” for “50 nM”, “100 nM.” for “TAMRA labelled peptide linked to ubiquitin via an iso-peptide bond as fluorescence polarisation substrate.”, “h” for “hr”, “487” for “540”, “535” for “590”

USP30, sequence (Q70CQ3 57-517): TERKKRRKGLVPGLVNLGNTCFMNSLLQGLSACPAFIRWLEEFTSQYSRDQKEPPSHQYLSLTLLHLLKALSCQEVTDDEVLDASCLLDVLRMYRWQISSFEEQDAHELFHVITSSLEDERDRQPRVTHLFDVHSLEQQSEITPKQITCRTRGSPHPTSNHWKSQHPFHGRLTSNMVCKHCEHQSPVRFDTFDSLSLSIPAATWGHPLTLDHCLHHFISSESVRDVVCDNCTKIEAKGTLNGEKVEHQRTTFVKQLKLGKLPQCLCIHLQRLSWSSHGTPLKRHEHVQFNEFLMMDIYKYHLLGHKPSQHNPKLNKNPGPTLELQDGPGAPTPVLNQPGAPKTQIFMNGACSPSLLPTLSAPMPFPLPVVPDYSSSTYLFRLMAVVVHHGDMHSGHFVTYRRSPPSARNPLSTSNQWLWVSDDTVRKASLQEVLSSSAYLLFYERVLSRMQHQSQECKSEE

Row | Substance | IC50 [nM]
1 | (R)-3-(1H-benzo [d]imidazol-2-yl)- N-(1-cyano pyrrolidin-3- yl)azetidine-1- carboxamide [Example 134] | 100 to 1000
2 | (R)-N-(1-cyano pyrrolidin-3-yl)- 3-phenoxy azetidine- 1-carboxamide [Example 133] | 100 to 1000
3 | N-(1-cyanopyrrolidin-3-yl)-6-(4- phenoxypiperidin-1- yl)nicolinamide [Example 22] | 100 to 1000
4 | N-((R)-1-cyano pyrrolidin-3-yl)- ((2S,6R)-2,6- dimethyl morpholino)- 5-fluoroiso nicotinamide [Example 140] | 100 to 1000
5 | rac-(3aR, 6aR)-1-(3-phenyl-1II- pyrazole-5- carbonyl)hexahydropyrrolo[3,4- b]pyrrole-5(1H)-carbonitrile [Example 52] | 100 to 1000
